The source of these data is patent US8575135B2 (Gilead Sciences, Inc., priority 2011, dated 2013).

Each structure is given as a SMILES string. Like-named read-outs stand apart in the source and are kept apart here.

Series [1] has as its system stable HCV 1a RLuc replicon cells (genotype 1a H77 replicon). Briefly: microbe, parasite or virus in culture. In kind it is cell-based. To be noted: Hepatitis C virus.
Series [2] concerns stable HCV 1b RLuc replicon cells (genotype 1b Con1 replicon). Briefly: microbe, parasite or virus in culture. To be noted: Hepatitis C virus, read-out: 1b (nM). In kind it is cell-based.
Series [3] relates to stable HCV 2a JFH-1 Rluc replicon cells (L31 present in NS5A). In words: microbe, parasite or virus in culture. In kind it is cell-based. The settings on record: Hepatitis C virus.
In series [4] the test system is NS5A chimeric genotype 1b Con1 replicon with genotype 3a S52 strain NS5A gene. Briefly: microbe, parasite or virus in culture. In kind it is cell-based, HCV. The settings on record: Hepatitis C virus. Put shortly:
(§1)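 Con1-based 3a and 4a chimeras carried a Pi-RLuc reporter and were transiently transfected into Huh-Lunet cells; the JFH-1-based 2b chimera (RLuc-Neo) was used transiently or as stable replicon cells.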

The subject of series [5] is NS5A chimeric genotype 2a JFH-1 replicon with genotype 2a J6 strain NS5A gene (M31 present). Briefly: microbe, parasite or virus in culture. The settings on record: Hepatitis C virus. In kind it is cell-based, HCV.
The subject of series [6] is NS5A chimeric genotype 2a JFH-1 replicon with genotype 2b MD2b-1 strain NS5A gene (M31 present). Briefly: microbe, parasite or virus in culture. The settings on record: Hepatitis C virus. The class given is cell-based, HCV. Put shortly: as §1
Series [7] relates to 1a Pi-Rluc replicon with Q30R in genotype 1a NS5A. Briefly: microbe, parasite or virus in culture. In kind it is cell-based, HCV. The settings on record: Hepatitis C virus. Put shortly: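 Renilla luciferase replicon assay: 1a Pi-RLuc replicon carrying NS5A Q30R, transfected transiently into cured-51 (Huh-7-derived) cells.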
A short description of series [8]: IV and PO single dose pharmacokinetic studies in SD rats. In kind it is in vivo. To be noted: male, Sprague-Dawley, rat, plasma, IV infusion 1 mg/kg vs oral gavage 2 mg/kg, read-out: Rat % F.

Take `COC[C@H]1C[C@@H](c2ncc(-c3ccc4c(c3)COc3cc5c(ccc6nc([C@@H]7CC[C@H](C)N7C(=O)[C@@H](NC(=O)OC)C(C)C)[nH]c65)cc3-4)[nH]2)N(C(=O)[C@@H](NC(=O)OC)[C@H](C)OC)C1` [Example QA, Methyl {(2S)-1-[(2S,5S)-2-(9-{2-[(2S,4S)-1-{(2S,3S)-3-methoxy-2-[(methoxycarbonyl)amino]butanoyl}-4-(methoxymethyl)pyrrolidin-2-yl]-1H-imidazol-5-yl}-1,11-dihydroisochromeno[4′,3′:6,7]naphtho[1,2-d]imidazol-2-yl)-5-methylpyrrolidin-1-yl]-3-methyl-1-oxobutan-2-yl}carbamate]: the EC50 in series [1] (read-out: 1a) was under 1 nM; in series [1] (read-out: 1a (nM)), 0.012 nM; in series [2] it was 0.013 nM; in series [3] (read-out: 2a JFH) it was under 1 nM; in series [3] (read-out: 2a JFH (nM)), 0.007 nM; in series [4] (read-out: 3a) it was under 1 nM. In addition, the EC50 in series [4] (read-out: 3a (nM)) was 0.038 nM; in series [5] (read-out: 2a J6), under 1 nM; in series [5] (read-out: 2a Jb (t) (nM)), 0.094 nM; in series [6] (read-out: 2b), under 1 nM; in series [6] (read-out: 2b (s) (nM)), 0.04 nM; in series [6] (read-out: 2b (t) (nM)), 0.052 nM. For the same compound, the EC50 in series [7] (read-out: 1a Q30R) is under 1 nM; in series [7] (read-out: 1a Q30R (nM)), 0.045 nM. The bioavailability in series [8] was 7.46%.

For `COC[C@H]1C[C@@H](c2ncc(-c3ccc4c(c3)COc3cc5c(ccc6nc([C@@H]7CC[C@H](C)N7C(=O)[C@@H](NC(=O)OC)[C@@H](C)OC)[nH]c65)cc3-4)[nH]2)N(C(=O)[C@@H](NC(=O)OC)C(C)C)C1` [Example PI, methyl {(2S)-1-[(2S,4S)-2-(5-{2-[(2S,5S)-1-{(2S,3R)-3-methoxy-2-[(methoxycarbonyl)amino]butanoyl}-5-methylpyrrolidin-2-yl]-1,11-dihydroisochromeno[4′,3′:6,7]naphtho[1,2-d]imidazol-9-yl}-1H-imidazol-2-yl)-4-(methoxymethyl)pyrrolidin-1-yl]-3-methyl-1-oxobutan-2-yl}carbamate], the EC50 was under 1 nM in series [1] (read-out: 1a); 0.031 nM in series [1] (read-out: 1a (nM)); 0.039 nM in series [2]; under 1 nM in series [3] (read-out: 2a JFH); 0.02 nM in series [3] (read-out: 2a JFH (nM)); under 1 nM in series [4] (read-out: 3a). Besides, the EC50 in series [4] (read-out: 3a (nM)) was 0.065 nM; in series [5] (read-out: 2a J6), under 1 nM; in series [5] (read-out: 2a Jb (t) (nM)) it was 0.129 nM; in series [6] (read-out: 2b), under 1 nM; in series [6] (read-out: 2b (t) (nM)), 0.09 nM; in series [7] (read-out: 1a Q30R), under 1 nM. Moreover, the EC50 in series [7] (read-out: 1a Q30R (nM)) was determined as 0.094 nM. In addition, the bioavailability in series [8] came out at 8.7%.

As to `CCC(C)[C@H](NC(=O)OC)C(=O)N1C[C@@H](C)CC1c1ncc(-c2ccc3c(c2)COc2cc4c(ccc5nc([C@@H]6CC(COC)CN6C(=O)[C@H](NC(=O)OC)c6ccccc6)[nH]c54)cc2-3)[nH]1` (stereo in doubt) [Example QB, Methyl {(1R)-2-[(2S,4S)-2-(9-{2-[(2S,4S)-1-{(2S,3R)-2-[(methoxycarbonyl)amino]-3-methylpentanoyl}-4-methylpyrrolidin-2-yl]-1H-imidazol-5-yl}-1,11-dihydroisochromeno[4′,3′:6,7]naphtho[1,2-d]imidazol-2-yl)-4-(methoxymethyl)pyrrolidin-1-yl]-2-oxo-1-phenylethyl}carbamate], the EC50 in series [1] (read-out: 1a) was under 1 nM; in series [1] (read-out: 1a (nM)), 0.011 nM; in series [2] it was 0.011 nM; in series [3] (read-out: 2a JFH), under 1 nM; in series [3] (read-out: 2a JFH (nM)) it was 0.008 nM; in series [4] (read-out: 3a), under 1 nM. Moreover, the EC50 is 0.028 nM in series [4] (read-out: 3a (nM)); under 1 nM in series [5] (read-out: 2a J6); 0.021 nM in series [5] (read-out: 2a Jb (t) (nM)); under 1 nM in series [6] (read-out: 2b); 0.022 nM in series [6] (read-out: 2b (t) (nM)); under 1 nM in series [7] (read-out: 1a Q30R). The EC50 in series [7] (read-out: 1a Q30R (nM)) was 0.029 nM. The bioavailability in series [8] is 9.56%.
